From US20160120886A1, “PREVENTION, TREATMENT, AND AMELIORATION OF RADIATION INDUCED ENTERITIS” (priority 2004, published 2016)

Tests used:
[1] = test system: radiation enteritis; details: related 5-ASA drugs; cited from earlier work
[2] = cited from earlier work
[3] = test system: radiation enteritis; test: Clinical trial of balsalazide to treat radiation enteritis; assay type: in vivo, human; details: patients on pelvic radiotherapy
Description: Subjects included patients treated for FIGO stage IB2-IVA cervical cancer, AJCC Stage T1-3 MO prostate cancer, or biochemical failure after prostatectomy. Radiotherapy was delivered to the subjects in a 4-field technique to at least 40 Gy, and tumor dose was at least 64 Gy for prostate patients, and 75 Gy for cervical patients. Brachytherapy boost was permitted. Patients were given 2250 mg of BSZ or an Identical-appearing placebo twice daily beginning 5 days prior to radiotherapy, and continuing for 2 weeks after completion. Toxicities were graded weekly according to NCI Common Toxicity Criteria, for each of the following: proctitis, diarrhea, dysuria, weight loss, fatigue, nausea, and vomiting. A symptom index was formulated for each toxicity consisting of the toxicity's numeric grade multiplied by the number of days it was experienced, and summed for each grade. Thus, a patient with 7 days of grade 1 proctitis, 14 days of grade 2 proctitis, and 7 days of grade 3 proctitis [(1*7)+(2*14)+(3*7)] would have a proctitis index of 56. A higher Index indicates worse toxicity. Patients were randomized by sealed envelope decision, with only the protocol coordinator aware of the results of randomization. After randomization, the study drug or identical-appearing placebo was given to the study subject with instructions concerning dosage and administration schedule. As stated above, the toxicity was assessed weekly during the course of radiation treatment, then for a period of at least six months after completion of radiotherapy. National Cancer Institute (NCI) common toxicity criteria were used to grade the severity of radiation-induced acute bowel toxicity. Diarrhea was used as the primary endpoint and was assessed as follows: Grade 0—no diarrhea or increased stool frequency Grade 1—increase of 2-3 stools/day Grade 2—increase of 4-6 stools/day or nocturnal stool Grade 3—increase of 7-9 stools/day or incontinence Grade 4—increase of >10 stools/day or grossly bloody diarrhea Documented baseline hemorrhoidal bleeding was not considered grade 4. A secondary endpoint included proctitis, which was assessed using guidelines outlined by the NCI Common Toxicity Criteria, including: Grade 0—None Grade 1—Increased stool frequency, occasional blood-streaked stools or rectal discomfort, not requiring medication Grade 2—increased stool frequency, bleeding, mucous discharge or rectal discomfort requiring medication Grade 3—increased stool frequency/diarrhea requiring parenteral support, rectal bleeding requiring transfusion, or persistent mucus discharge necessitating the use of pads Grade 4—perforation, bleeding or necrosis, or other life-threatening complications requiring surgical intervention

[4] = cited from earlier work; remark: listed apart in the source
[5] = 2250 mg twice daily, versus placebo

In the case of O=C(O)c1cc(/N=N/c2ccc(O)c(C(=O)O)c2)ccc1O [osalazine], the “outcome in clinical trials for radiation enteritis” value [1] is listed as “failure”.

In the case of Nc1ccc(O)c(C(=O)O)c1 [mesalamine, 5-aminosalicylic acid], the “outcome in clinical trials for radiation enteritis” value [1] is given as “failure”.

For O=C(O)CCNC(=O)c1ccc(/N=N/c2ccc(O)c(C(=O)O)c2)cc1 [balsalazide], the “adverse events reported in trials (headache, nausea, diarrhea, flatulence, fatigue)” value ([2]; versus placebo) is listed as “comparable to those seen in patients receiving placebo”, the “proctitis mean index (symptom index: toxicity grade x days, summed)” value ([3]; 2250 mg twice daily from 5 days prior to radiotherapy until 2 weeks after, vs. 77 in placebo (p=0.04), higher index = worse) is listed as 35 and the nausea/vomiting seen ([3]; 2250 mg twice daily, 1 on placebo) is listed as 2 patients. The “patients experiencing grade 4 diarrhea” value ([3]; 2250 mg twice daily, 2 placebo patients did) was “No patient”, the fatigue index ([3]; 2250 mg twice daily, placebo averaged 49) was 20 and the average weight change ([3]; 2250 mg twice daily, placebo lost greater than 3 pounds) was “gained weight”. For the same compound, the “all toxicities except nausea/vomiting” value [3, 5] was “appreciably lower” and the dysuria [3, 5] was “appreciably lower”.

For O=C(O)CCNC(=O)c1ccc(/N=N/c2ccc(O)c(C(=O)O)c2)cc1 [balsalazide disodium], the “abdominal pain (only statistically significant side effect), patients receiving the drug” value ([2]; versus 0% in those receiving placebo) is given as 11% and the water solubility [4] is given as “highly water-soluble”.
